Data: patent US10421751B2, “Dihydro-2H-benzo[b][1,4]oxazine sulfonamide and related compounds for use as agonists of RORγ and the treatment of disease” (Lycera Corporation, priority 2015, dated 2019)

What was measured:
[1] = target: T1, RORγ-LBD (Homo sapiens, UniProt P51449); assay: RORγ-Ligand Binding Domain (LBD) TR-FRET Assay; type: biochemical; details: for EC50: in presence of 2 μM RORγ antagonist ursolic acid, SRC1 coactivator peptide; for TR-FRET Assay Max Response: upper plateau of 4-parameter fit, signal in the absence of ursolic acid or test compound set as 100
T1 construct: made in house; host or cells: SF9 cells, baculovirus expression system; used as diluted lysate
T1 sequence (P51449 269-508 limits assumed): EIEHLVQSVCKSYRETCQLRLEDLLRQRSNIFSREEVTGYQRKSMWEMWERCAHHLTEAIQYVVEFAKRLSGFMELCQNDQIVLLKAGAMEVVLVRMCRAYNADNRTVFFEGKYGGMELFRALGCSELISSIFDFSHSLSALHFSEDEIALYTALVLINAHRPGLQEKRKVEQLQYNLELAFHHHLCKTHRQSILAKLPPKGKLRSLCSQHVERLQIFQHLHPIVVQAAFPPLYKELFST
Description: HIS-tagged RORγ-LBD protein was expressed in SF9 cells using a baculovirus expression system. The lysate was diluted in assay buffer (50 mM Tris pH 7.0, 50 mM KCl, 1 mM EDTA, 0.1 mM DTT, 0.01% BSA) to obtain RORγ-LBD final concentration of ˜3 nM in a 384-well assay plate (need to titrate for each batch of protein).
A stock of biotinylated-LXXLL peptide from coactivator SRC1 (Biotin-[…]) was prepared in assay buffer and added to each well (200 nM final concentration). A solution of Europium tagged anti-HIS antibody (0.6 nM final concentration) and APC-conjugated streptavidin (30 nM final concentration) were also added to each well. RORγ antagonist ursolic acid was also included at a final concentration of 2 μM. Compounds were diluted in DMSO and further diluted in assay buffer with a final DMSO concentration at 1%.
The final assay mixture was incubated overnight at 4° C. or 2 hours at room temperature, and the fluorescence signal was measured on an Envision plate reader: (Excitation filter=340 nm; APC emission=665 nm; Europium emission=615 nm; dichroic mirror=D400/D630; delay time=100 μs, integration time=200 μs). 50% Effective concentration (EC50) values for test compounds were calculated from the quotient of the fluorescence signal at 665 nm divided by the fluorescence signal at 615 nm. The quotient of the fluorescence signals in the absence of ursolic acid or test compound is set as 100. Max Response is defined as the upper plateau in the signal as determined by line-fit using a 4-parameter logistic model in PRISM (GraphPad).

[2] = target: T2, Gal4-RORγ-LBD (Homo sapiens, UniProt P51449); assay: Gal4-RORγ Luciferase Reporter Assay in HEK-293T Cells; type: cell-based; details: for EC50: HEK-293 cells, in presence of 2 μM ursolic acid, overnight incubation, read-out: Ga14-RORγ Assay EC50; for Ga14-RORγ Assay Max Response: upper plateau of 4-parameter fit, luciferase signal in the absence of ursolic acid or test compound defined at 100
T2 construct: expressed in transfected cells; pcDNA3.1neo plasmid, co-transfected with pGL4.31 Gal4-luciferase reporter
T2 sequence (P51449 269-508 limits assumed): T1 sequence (P51449 269-508 limits assumed)
Description: In the following protocol, HEK-293 cells were transfected with a construct comprising the Gal4 DNA binding domain fused to the ligand binding domain of RORγ (Gal4-RORγ-LBD) in a pcDNA3.1neo plasmid, and also with a reporter construct comprising pGL4.31 Gal4-luciferase (Promega). Control cells were prepared similarly using empty pcDNA3.1neo and pGL4.31 vectors.
Trans-IT reagent (Mirus, 60 μL) at room temperature was added drop wise to OptiMEM (Invitrogen, 1.5 ml). This reagent mixture was mixed by inversion then incubated for 5 to 30 minutes at room temperature. It then was added to a solution of both expression vectors (5 μg each), mixed, and incubated at room temperature for about 20 minutes. HEK-293 cells were harvested from incubation flasks by removing the media, treating with TrypLE Express (Invitrogen), and incubating until the cells detached from the bottom of the flask (approximately 2-5 minutes). 10 Million cells were collected by centrifugation and re-suspended in 10 mL of Dulbecco's Modified Eagle Medium, High Glucose (DMEM, Invitrogen) containing 10% Fetal Bovine Serum and 100 IU each of penicillin and streptomycin. The re-suspended cells and the transfection mixture were added to a T75 flask, mixed and incubated overnight at 37° C. and 5% CO2.
The cells were harvested as described above, counted, and centrifuged to obtain the desired number of cells, then re-suspended in complete growth media at 0.75×10^6 cells/mL. The RORγ antagonist, ursolic acid, was added to the cells at a final concentration of 2 μM. Cells were plated at 20 μL of cell suspension/well (10,000-15,000 cells/well) in white tissue culture treated 384 well plates. Test compounds were dissolved at 10 mM in DMSO then diluted into complete growth medium to 5× the final intended test concentration. These drug stock solutions, 5 μL/well were added to the tissue culture plate. The final DMSO concentration was 0.2%. The plates were briefly centrifuged then incubated overnight at 37° C. and 5% CO2. To conduct the assay, the tissue culture plates were allowed to equilibrate to room temperature and One-Glo luciferase reagent (Promega, 25 μL/well) was added. The plates were briefly centrifuged then incubated at room temperature for 10 minutes. The luciferase intensity was read on an Envision plate reader (Perkin Elmer). RORγ activity was determined relative to controls and plotted as a function of test compound concentration using PRISM (GraphPad) to determine a 50% effective concentration (EC50). The luciferase signal in the absence of ursolic acid or test compound is defined at 100. The Max Response is the upper plateau in the signal as determined by line-fit using a 4-parameter logistic model in PRISM (GraphPad).

Structure (SMILES) | EC50 [1] | TR-FRET Assay Max Response [1] | EC50 [2] | Ga14-RORγ Assay Max Response [2]
CCOc1nn(CC)cc1S(=O)(=O)N1C[C@H](CCOc2noc(=O)[nH]2)Oc2ccc(/C=C(\C)c3c(F)cccc3Cl)cc21 | < 100 nM | *** (a value in the range of greater than 150 to 200) | 0.1 to 5 µM | ** (a value in the range of greater than 90 to 150)
COc1cc(S(=O)(=O)N2C[C@H](CCOc3noc(=O)[nH]3)Oc3ccc(/C=C(\C)c4c(F)cccc4Cl)cc32)ccc1F | < 100 nM | *** (a value in the range of greater than 150 to 200) | 0.1 to 5 µM | **** (a value greater than 200)
C/C(=C\c1ccc2c(c1)N(S(=O)(=O)c1cccc(C(F)(F)F)c1)C[C@H](CCn1ccnc1C)O2)c1c(F)cccc1Cl | < 100 nM | *** (a value in the range of greater than 150 to 200) | 0.1 to 5 µM | ** (a value in the range of greater than 90 to 150)
C/C(=C\c1ccc2c(c1)N(S(=O)(=O)c1cccc(C(F)(F)F)c1)C[C@H](CCn1cccn1)O2)c1c(F)cccc1Cl | < 100 nM | *** (a value in the range of greater than 150 to 200) | 0.1 to 5 µM | ** (a value in the range of greater than 90 to 150)
C/C(=C\c1ccc2c(c1)N(S(=O)(=O)c1cccc(C(F)(F)F)c1)C[C@H](CCCn1cc(C(=O)O)nn1)O2)c1c(F)cccc1Cl | < 100 nM | *** (a value in the range of greater than 150 to 200) | 0.1 to 5 µM | ** (a value in the range of greater than 90 to 150)
C/C(=C\c1ccc2c(c1)N(S(=O)(=O)c1cccc(C(F)(F)F)c1)C[C@H](CCCn1ccnn1)O2)c1c(F)cccc1Cl | < 100 nM | *** (a value in the range of greater than 150 to 200) | 0.1 to 5 µM | ** (a value in the range of greater than 90 to 150)
C/C(=C\c1ccc2c(c1)N(S(=O)(=O)c1cccc(C(F)(F)F)c1)C[C@H](CCCn1cccn1)O2)c1c(F)cccc1Cl | < 100 nM | *** (a value in the range of greater than 150 to 200) | 0.1 to 5 µM | ** (a value in the range of greater than 90 to 150)
C/C(=C\c1ccc2c(c1)N(S(=O)(=O)c1cccc(C(F)(F)F)c1)[C@H](C)[C@H](Cn1cccn1)C2)c1c(F)cccc1Cl | < 100 nM | *** (a value in the range of greater than 150 to 200) | 0.1 to 5 µM | ** (a value in the range of greater than 90 to 150)
C/C(=C\c1ccc2c(c1)N(S(=O)(=O)c1cccc(C(F)(F)F)c1)[C@H](C)[C@H](Cn1ccnn1)C2)c1c(F)cccc1Cl | < 100 nM | *** (a value in the range of greater than 150 to 200) | > 10 µM | * (a value in the range of 40 to 90)
C/C(=C\c1ccc2c(c1)N(S(=O)(=O)c1cccc(C(F)(F)F)c1)C[C@H](CCCc1noc(=O)[nH]1)O2)c1c(F)cccc1Cl | 100 to 5000 nM | *** (a value in the range of greater than 150 to 200) | 0.1 to 5 µM | ** (a value in the range of greater than 90 to 150)
C/C(=C\c1ccc2c(c1)N(S(=O)(=O)c1cccc(C(F)(F)F)c1)C[C@H](CCCc1nn[nH]n1)O2)c1c(F)cccc1Cl | 100 to 5000 nM | *** (a value in the range of greater than 150 to 200) | 0.1 to 5 µM | ** (a value in the range of greater than 90 to 150)
CCn1cc(S(=O)(=O)N2C[C@H](CCc3n[nH]c(=O)o3)Oc3ccc(/C=C(\C)c4c(F)cccc4Cl)cc32)c(OCCO)n1 | < 100 nM | **** (a value greater than 200) | 0.1 to 5 µM | ** (a value in the range of greater than 90 to 150)
CCOc1ncc(Cl)cc1S(=O)(=O)N1C[C@H](CCc2n[nH]c(=O)o2)Oc2ccc(/C=C(\C)c3c(F)cccc3Cl)cc21 | < 100 nM | *** (a value in the range of greater than 150 to 200) | 0.1 to 5 µM | ** (a value in the range of greater than 90 to 150)
C/C(=C\c1ccc2c(c1)N(S(=O)(=O)c1cc(Cl)cnc1OCCO)C[C@H](CCc1n[nH]c(=O)o1)O2)c1c(F)cccc1Cl | < 100 nM | **** (a value greater than 200) | 0.1 to 5 µM | ** (a value in the range of greater than 90 to 150)
CCn1cc(S(=O)(=O)N2C[C@H](CCc3n[nH]c(=O)o3)Oc3ccc(/C=C/c4c(Cl)cccc4C(F)(F)F)cc32)c(OCCO)n1 | < 100 nM | **** (a value greater than 200) | 0.1 to 5 µM | ** (a value in the range of greater than 90 to 150)
CCOc1ncc(C(F)(F)F)cc1S(=O)(=O)N1C[C@H](CCc2n[nH]c(=O)o2)Oc2ccc(/C=C/c3c(Cl)cccc3C(F)(F)F)cc21 | 100 to 5000 nM | **** (a value greater than 200) | 0.1 to 5 µM | ** (a value in the range of greater than 90 to 150)
O=c1[nH]nc(CC[C@H]2CN(S(=O)(=O)c3cccc(OC(F)F)c3)c3cc(/C=C/c4c(Cl)cccc4C(F)(F)F)ccc3O2)o1 | < 100 nM | **** (a value greater than 200) | 0.1 to 5 µM | ** (a value in the range of greater than 90 to 150)
